Like-named read-outs stand apart in the source and are kept apart here.
Assays:
[1] = biological target: T1, Recombinant murine C17,20 lyase (mLyase) (Mus musculus, UniProt P27786); assay: Murine C17,20 lyase biochemical assay (DHEA formation, RIA/SPA, cytochrome b5 omitted); conditions: Table V
T1 construct: made in house; host or cells: Sf9 insect cells (baculovirus), by analogy ('in a similar manner'); enriched microsomes
T1 sequence (P27786 1-507): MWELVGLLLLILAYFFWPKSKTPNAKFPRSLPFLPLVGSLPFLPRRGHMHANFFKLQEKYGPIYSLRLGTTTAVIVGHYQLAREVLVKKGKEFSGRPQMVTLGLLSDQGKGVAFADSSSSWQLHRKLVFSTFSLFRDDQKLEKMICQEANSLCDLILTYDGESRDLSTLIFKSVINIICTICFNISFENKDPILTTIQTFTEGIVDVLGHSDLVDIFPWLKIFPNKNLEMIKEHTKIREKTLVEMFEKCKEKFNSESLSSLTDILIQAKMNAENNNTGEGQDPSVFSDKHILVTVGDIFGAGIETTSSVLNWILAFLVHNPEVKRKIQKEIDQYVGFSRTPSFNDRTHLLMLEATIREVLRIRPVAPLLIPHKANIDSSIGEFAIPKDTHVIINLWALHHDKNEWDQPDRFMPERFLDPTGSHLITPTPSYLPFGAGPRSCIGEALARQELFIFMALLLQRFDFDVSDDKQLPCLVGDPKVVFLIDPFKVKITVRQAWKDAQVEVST
Experimental: Recombinant human C17,20 lyase (hLyase) was expressed in (Sf9) cells, and hLyase enriched microsomes were prepared from cultures as described in the following reference: Baculovirus Expression of Bovine P450 in Sf9 Cells and Comparison with Expression in Yeast, Mammalian Cells, and E. Coli. Barnes H. J.; Jenkins, C. M.; Waterman, M. R., Archives of Biochemistry and Biophysics (1994) 315(2)489-494. Recombinant murine C17,20 lyase (mLyase) was prepared in a similar manner. hLyase and mLyase preparations were titrated using assay conditions to determine protein concentrations to be used for assays. […]
(§1) Enzymatic reactions were allowed to run for 2 h at rt with gentle agitation. […] The concentration of DHEA generated by hLyase was determined by radioimmunoassay (RIA) as described below.
(§2) 0.08 μCi ^3H-DHEA (1.6 μCi/mL) (NEN (NET814)) in scintillation proximity assay (SPA) buffer (100 mM Tris-HCl, pH 7.5, 50 mM NaCl, 0.5% BSA (Sigma A9647), 0.2% Tween 20) was added to each well. […] Mixtures were allowed to equilibrate with gentle agitation for 1 h followed by an overnight equilibration with no agitation. ^3H-DHEA bound to the SPA beads was determined by scintillation counting.
The concentration of DHEA generated in each reaction was calculated from raw data (CPM) and the standard curve. […]

[2] = biological target: T2, Recombinant human C17,20 lyase (hLyase) (Homo sapiens, UniProt P05093); assay: Human C17,20 lyase biochemical assay (DHEA formation, RIA/SPA)
T2 construct: made in house; host or cells: Sf9 insect cells (baculovirus); hLyase-enriched microsomes
T2 sequence (P05093 1-508): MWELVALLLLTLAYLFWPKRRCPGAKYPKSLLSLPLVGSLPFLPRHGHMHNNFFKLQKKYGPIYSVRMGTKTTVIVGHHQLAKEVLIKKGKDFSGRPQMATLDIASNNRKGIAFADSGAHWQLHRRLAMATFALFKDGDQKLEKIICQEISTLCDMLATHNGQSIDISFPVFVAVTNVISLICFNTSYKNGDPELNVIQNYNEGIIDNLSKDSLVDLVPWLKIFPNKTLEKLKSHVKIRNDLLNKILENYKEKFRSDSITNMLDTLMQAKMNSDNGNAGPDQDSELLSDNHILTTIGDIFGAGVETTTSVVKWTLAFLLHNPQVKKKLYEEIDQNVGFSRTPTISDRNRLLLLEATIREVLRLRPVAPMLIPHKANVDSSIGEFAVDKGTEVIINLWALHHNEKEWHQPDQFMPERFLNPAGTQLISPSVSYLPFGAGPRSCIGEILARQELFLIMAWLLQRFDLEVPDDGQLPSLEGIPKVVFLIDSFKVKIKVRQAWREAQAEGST
Experimental: Recombinant human C17,20 lyase (hLyase) was expressed in (Sf9) cells, and hLyase enriched microsomes were prepared from cultures as described in the following reference: Baculovirus Expression of Bovine P450 in Sf9 Cells and Comparison with Expression in Yeast, Mammalian Cells, and E. Coli. Barnes H. J.; Jenkins, C. M.; Waterman, M. R., Archives of Biochemistry and Biophysics (1994) 315(2)489-494. Recombinant murine C17,20 lyase (mLyase) was prepared in a similar manner. hLyase and mLyase preparations were titrated using assay conditions to determine protein concentrations to be used for assays. Both mLyase and hLyase assays were run in an identical manner except that cytochrome b5 was omitted in the murine assays.
Test compounds were diluted […], serially in six steps, with 100% DMSO starting from 800 μM going to 51.2 nM reserving the first 2 columns for the generation of a standard curve. Each of these compound solutions in 100% DMSO was further diluted twenty fold in H2O to obtain compound concentrations ranging from 40 μM to 2.56 nM in 5% DMSO. […]
as §1, §2
The concentration of DHEA generated in each reaction was calculated from raw data (CPM) and the standard curve. The lyase inhibitory activity of each compound was determined as the concentration of DHEA generated in the presence of test compounds, expressed as a percent inhibition compared to the DHEA concentration generated in the absence of test compounds (1−(nM DHEA formed in the presence of test compound/nM DHEA formed in the absence of test compounds)×100).

[3] = tested on: powdery mildew; assay: Test against powdery mildew
[4] = read-out: inhibitory IC50 against C17,20 human lyase

melting point [°C]	Structure (SMILES)	IC50 [1] [nM]	IC50 [2, 4] [nM]	further results
176.5 to 183.5	Cl.Clc1ccc(-c2csc(-c3cnccc3Cl)n2)cc1	–	–	–
165.5 to 170	Cc1ccncc1-c1nc(Cc2ccc(Cl)cc2)cs1.Cl	–	–	–
–	Clc1ccc(-c2csc(-c3cccnc3)n2)c(Cl)c1 [2-(3-pyridyl)-4-(2,4-dichlorophenyl)thiazole, reference compound]	1400	406	% Inhibition against Powdery Mildew ([3]; *Statistically insignificant): 80%
–	Cc1ccncc1-c1nc(-c2ccc(Cl)cc2Cl)cs1 [2-[4-methyl-3-pyridyl)-4-(2,4-dichlorophenyl)thiazole]	39.7	15	IC50 ([2]; Table V, read-out: Human Lyase IC50): 15.1 nM; % Inhibition against Powdery Mildew ([3]; *Statistically insignificant; listed as 2-[4-methyl-3-pyridyl)-4-(2,4dichlorophenyl)thiazole): devoid of activity; % Inhibition against Powdery Mildew ([3]; *Statistically insignificant, listed as drawing 261): 10%*
110	Cc1sc(-c2cccnc2)nc1Nc1ccccc1 [Example 6]	–	–	–

— US20040267017A1, “3-pyridyl or 4-isoquinolinyl thiazoles as c17, 20 lyase inhibitors” (priority 2001, published 2004)
